{"source": "paper PMC7043280", "about": "(European journal of medicinal chemistry, 2018)", "key": {"NMDAR": {"tested_on": "NMDAR", "conditions": "cited from earlier work; for NMDAR agonist activity or effect on the holding current: ref Saptoka et al., 2017"}, "[1]": {"tested_on": "GluN1/GluN2A-D diheteromeric NMDARs", "assay": "TEVC electrophysiology, values stated in the text across several GluN2 subtypes", "assay_type": "cell-based, rat"}, "GluN1/GluN2A NMDAR [2]": {"molecular_target": "T1, GluN1/GluN2A NMDAR (Rattus norvegicus, UniProt P35439+Q00959)", "T1 sequence (Q00959 23-1464, other chains not shown)": "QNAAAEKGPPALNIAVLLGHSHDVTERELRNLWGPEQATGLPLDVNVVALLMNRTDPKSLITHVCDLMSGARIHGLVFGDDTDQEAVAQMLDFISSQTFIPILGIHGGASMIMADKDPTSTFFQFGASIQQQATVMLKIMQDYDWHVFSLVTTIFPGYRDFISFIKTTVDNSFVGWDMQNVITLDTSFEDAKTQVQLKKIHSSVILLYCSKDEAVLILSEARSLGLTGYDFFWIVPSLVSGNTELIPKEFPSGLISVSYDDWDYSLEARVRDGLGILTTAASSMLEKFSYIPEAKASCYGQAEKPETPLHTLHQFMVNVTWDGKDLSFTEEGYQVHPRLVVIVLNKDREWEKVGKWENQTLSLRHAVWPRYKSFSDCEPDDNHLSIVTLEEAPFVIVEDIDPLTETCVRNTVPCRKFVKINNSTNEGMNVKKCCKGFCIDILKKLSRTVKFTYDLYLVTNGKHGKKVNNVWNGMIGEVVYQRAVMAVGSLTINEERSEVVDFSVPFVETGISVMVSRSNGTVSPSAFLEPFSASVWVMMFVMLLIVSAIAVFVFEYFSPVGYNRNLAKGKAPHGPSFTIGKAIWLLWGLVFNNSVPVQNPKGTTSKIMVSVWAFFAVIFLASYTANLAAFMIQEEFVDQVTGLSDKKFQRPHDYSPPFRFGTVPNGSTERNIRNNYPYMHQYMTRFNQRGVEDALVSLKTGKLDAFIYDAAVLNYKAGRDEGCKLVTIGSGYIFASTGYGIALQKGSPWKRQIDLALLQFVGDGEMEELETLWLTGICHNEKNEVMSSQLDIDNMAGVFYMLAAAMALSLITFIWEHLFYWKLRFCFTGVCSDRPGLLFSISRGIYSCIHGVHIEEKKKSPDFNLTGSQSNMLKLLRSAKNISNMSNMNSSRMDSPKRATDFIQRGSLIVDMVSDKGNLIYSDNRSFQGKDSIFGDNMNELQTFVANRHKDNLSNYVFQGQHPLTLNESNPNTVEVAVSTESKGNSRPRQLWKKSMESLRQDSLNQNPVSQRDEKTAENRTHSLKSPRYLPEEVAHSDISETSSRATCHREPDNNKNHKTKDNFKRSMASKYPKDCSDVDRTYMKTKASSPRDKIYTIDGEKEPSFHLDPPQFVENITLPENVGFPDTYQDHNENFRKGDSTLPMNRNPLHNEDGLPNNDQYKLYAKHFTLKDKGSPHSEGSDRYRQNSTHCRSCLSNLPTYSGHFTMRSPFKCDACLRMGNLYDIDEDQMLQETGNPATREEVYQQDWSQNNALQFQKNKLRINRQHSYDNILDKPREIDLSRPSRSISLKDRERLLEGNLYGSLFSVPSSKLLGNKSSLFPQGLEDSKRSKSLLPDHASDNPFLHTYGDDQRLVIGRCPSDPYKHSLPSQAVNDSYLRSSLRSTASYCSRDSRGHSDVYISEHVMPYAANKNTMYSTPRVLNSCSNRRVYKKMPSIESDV", "assay": "TEVC electrophysiology on recombinant NMDA receptors", "assay_type": "cell-based"}, "[3]": {"tested_on": "GluN1/GluN2A-D diheteromeric NMDARs", "conditions": "cited from earlier work"}, "GluN1/GluN2B NMDAR": {"molecular_target": "GluN1/GluN2B NMDAR (Rattus norvegicus, UniProt P35439+Q00960)", "sequence (Q00960 27-1482, other chains not shown)": "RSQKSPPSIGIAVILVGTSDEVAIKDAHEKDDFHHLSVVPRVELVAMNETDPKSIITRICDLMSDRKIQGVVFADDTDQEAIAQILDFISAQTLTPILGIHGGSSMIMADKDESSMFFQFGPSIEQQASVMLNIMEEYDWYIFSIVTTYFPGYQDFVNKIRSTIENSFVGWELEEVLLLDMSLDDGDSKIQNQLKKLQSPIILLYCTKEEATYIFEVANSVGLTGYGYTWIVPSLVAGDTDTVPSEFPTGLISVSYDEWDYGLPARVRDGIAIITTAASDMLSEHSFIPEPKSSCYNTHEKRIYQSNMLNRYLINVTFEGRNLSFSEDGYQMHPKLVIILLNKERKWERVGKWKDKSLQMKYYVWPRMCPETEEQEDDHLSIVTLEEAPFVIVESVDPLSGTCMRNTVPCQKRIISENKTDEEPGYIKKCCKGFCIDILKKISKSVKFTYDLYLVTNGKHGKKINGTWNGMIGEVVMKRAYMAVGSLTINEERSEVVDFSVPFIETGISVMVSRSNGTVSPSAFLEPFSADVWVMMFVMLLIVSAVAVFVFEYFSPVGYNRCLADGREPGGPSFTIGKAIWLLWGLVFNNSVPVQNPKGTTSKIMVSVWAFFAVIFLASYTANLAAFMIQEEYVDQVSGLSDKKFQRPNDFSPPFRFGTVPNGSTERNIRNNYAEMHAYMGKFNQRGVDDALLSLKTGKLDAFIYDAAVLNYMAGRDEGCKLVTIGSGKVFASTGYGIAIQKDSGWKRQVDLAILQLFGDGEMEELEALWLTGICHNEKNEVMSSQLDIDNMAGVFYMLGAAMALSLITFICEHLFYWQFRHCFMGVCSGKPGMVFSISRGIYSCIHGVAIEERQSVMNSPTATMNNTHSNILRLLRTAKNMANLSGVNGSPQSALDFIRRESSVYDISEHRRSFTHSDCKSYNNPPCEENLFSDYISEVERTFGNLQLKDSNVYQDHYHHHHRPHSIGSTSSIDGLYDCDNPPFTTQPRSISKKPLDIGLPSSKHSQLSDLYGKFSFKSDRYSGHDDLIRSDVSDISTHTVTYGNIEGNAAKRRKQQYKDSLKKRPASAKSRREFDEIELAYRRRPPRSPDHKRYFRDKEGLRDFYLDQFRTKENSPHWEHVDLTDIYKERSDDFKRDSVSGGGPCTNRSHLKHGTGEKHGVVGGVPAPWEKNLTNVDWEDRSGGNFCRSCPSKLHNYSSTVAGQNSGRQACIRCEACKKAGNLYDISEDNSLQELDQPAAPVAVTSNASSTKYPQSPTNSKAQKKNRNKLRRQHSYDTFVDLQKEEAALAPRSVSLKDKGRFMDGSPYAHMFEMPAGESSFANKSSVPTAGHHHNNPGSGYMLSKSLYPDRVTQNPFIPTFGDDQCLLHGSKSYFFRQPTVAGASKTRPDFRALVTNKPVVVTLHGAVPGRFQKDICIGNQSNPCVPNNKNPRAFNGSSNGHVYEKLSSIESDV", "assay": "TEVC electrophysiology on recombinant NMDA receptors", "assay_type": "cell-based", "conditions": "for fold greater inhibitory activity on GluN2B compared to 7: from IC50 values, Table 6"}, "GluN1/GluN2D NMDAR": {"molecular_target": "GluN1/GluN2D NMDAR (Rattus norvegicus, UniProt P35439+Q62645)", "sequence (Q62645 28-1323, other chains not shown)": "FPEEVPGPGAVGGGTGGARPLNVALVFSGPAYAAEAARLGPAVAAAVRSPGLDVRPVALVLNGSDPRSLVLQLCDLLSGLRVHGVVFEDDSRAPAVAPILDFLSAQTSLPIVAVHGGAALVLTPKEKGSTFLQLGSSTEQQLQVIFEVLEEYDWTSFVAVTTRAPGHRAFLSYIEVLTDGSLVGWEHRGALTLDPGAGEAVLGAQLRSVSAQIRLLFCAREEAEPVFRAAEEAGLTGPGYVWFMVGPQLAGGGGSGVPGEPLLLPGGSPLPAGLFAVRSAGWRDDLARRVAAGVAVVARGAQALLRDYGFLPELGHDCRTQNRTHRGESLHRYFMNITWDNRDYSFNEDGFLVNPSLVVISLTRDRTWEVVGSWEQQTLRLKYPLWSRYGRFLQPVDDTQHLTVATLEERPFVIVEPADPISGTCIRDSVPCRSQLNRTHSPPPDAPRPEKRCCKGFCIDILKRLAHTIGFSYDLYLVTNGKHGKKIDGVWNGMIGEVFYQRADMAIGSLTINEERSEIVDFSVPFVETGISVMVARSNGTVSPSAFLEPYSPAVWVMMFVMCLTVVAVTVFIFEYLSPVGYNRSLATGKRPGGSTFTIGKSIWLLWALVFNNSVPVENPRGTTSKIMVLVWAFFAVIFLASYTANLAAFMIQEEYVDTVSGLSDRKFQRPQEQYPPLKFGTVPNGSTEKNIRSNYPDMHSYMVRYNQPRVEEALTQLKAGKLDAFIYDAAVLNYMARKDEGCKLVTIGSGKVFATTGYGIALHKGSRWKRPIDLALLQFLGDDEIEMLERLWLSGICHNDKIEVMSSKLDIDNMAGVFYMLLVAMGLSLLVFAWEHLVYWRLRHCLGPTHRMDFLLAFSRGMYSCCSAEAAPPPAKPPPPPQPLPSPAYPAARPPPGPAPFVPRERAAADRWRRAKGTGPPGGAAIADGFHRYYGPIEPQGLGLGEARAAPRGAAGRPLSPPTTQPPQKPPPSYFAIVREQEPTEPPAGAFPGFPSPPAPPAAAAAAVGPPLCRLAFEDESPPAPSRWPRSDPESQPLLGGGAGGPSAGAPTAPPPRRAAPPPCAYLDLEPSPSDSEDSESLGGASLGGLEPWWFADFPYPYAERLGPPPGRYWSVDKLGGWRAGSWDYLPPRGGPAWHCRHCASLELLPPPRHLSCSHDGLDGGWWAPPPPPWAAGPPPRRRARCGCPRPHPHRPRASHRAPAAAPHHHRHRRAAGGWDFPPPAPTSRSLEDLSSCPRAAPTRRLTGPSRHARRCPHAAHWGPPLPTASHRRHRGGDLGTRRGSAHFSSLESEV", "assay": "TEVC electrophysiology on recombinant NMDA receptors", "assay_type": "cell-based", "conditions": "for percentage maximum inhibition of the agonist response, GluN2D: value in parenthesis, ± s.e.m., L-glutamate 10 μM and glycine 10 μM"}, "GluN1/GluN2C NMDAR": {"molecular_target": "GluN1/GluN2C NMDAR (Rattus norvegicus, UniProt P35439+Q00961)", "assay": "TEVC electrophysiology on recombinant NMDA receptors", "assay_type": "cell-based", "conditions": "from IC50 values, Table 6"}, "GluN1/GluN2A NMDAR [4]": {"molecular_target": "T1, GluN1/GluN2A NMDAR", "conditions": "ref 7a; cited from earlier work"}}}
{"smiles": "CC(C)CCC(C)c1ccc2cc(C(=O)O)ccc2c1", "note": "(racemic) [Compound 46, (RS)-6-(5-Methylhexan-2-yl)-2-naphthoic acid]", "values": [{"measurement": "NMDAR agonist activity or effect on the holding current", "setting": "NMDAR", "result": "no NMDAR agonist activity or effect on the holding current"}]}
{"smiles": "CCc1ccc2cc(C(=O)O)ccc2c1", "note": "[6-ethyl derivative]", "values": [{"measurement": "percentage inhibition on GluN2A-D", "setting": "[1]; 100 μM, range over GluN2A-D", "result": "17–52%"}]}
{"smiles": "O=C(O)c1ccc2cc(I)ccc2c1", "note": "[6-iodo-2-naphthoic acid]", "values": [{"measurement": "inhibitory activity on GluN2B-D", "setting": "[1]; 100 μM, range over GluN2B-D", "result": "9–12%"}, {"measurement": "inhibition at 100 µM", "setting": "GluN1/GluN2A NMDAR [2]; read-out: inhibition of the agonist response on GluN2A", "result": "26 ± 2", "unit": "%"}]}
{"smiles": "CCCc1ccc2cc(C(=O)O)ccc2c1", "note": "[6-n-propyl derivative]", "values": [{"measurement": "percentage inhibition on GluN2A-D", "setting": "[1]; 100 μM, range over GluN2A-D", "result": "0–14%"}]}
{"smiles": "O=C(O)c1ccc2cc(I)c3ccccc3c2c1", "note": "[Compound 1, reference compound]", "values": [{"measurement": "glutamate-site or glycine-site NMDAR agonist activity; activity in the absence of agonists", "setting": "NMDAR", "result": "did not display glutamate-site or glycine-site NMDAR agonist activity"}]}
{"smiles": "O=C(O)c1cc2cc(-c3ccccc3)ccc2cc1O", "note": "[Compound 7, reference compound]", "values": [{"measurement": "glutamate-site or glycine-site NMDAR agonist activity; activity in the absence of agonists", "setting": "NMDAR", "result": "did not display glutamate-site or glycine-site NMDAR agonist activity"}, {"measurement": "maximal inhibition of GluN2A and GluN2B", "setting": "[3]", "result": "57–72%"}]}
{"smiles": "CC(C)CCCc1ccc2cc(C(=O)O)ccc2c1", "note": "[Compound 14b, 6-(4-Methylpent-1-yl)-2-naphthoic acid]", "values": [{"measurement": "NMDAR agonist activity or effect on the holding current", "setting": "NMDAR", "result": "no NMDAR agonist activity or effect on the holding current"}, {"measurement": "potentiation across GluN2A-D", "setting": "[1]; 100 μM", "result": "> 170", "unit": "%"}, {"measurement": "EC50", "setting": "[1]; read-out: EC50 values across GluN2A-D, range over GluN2A-D", "result": "28 to 37.2", "unit": "µM"}]}
{"smiles": "CCCCCc1ccc2cc(CC(=O)O)ccc2c1", "note": "[Compound 21, (6-n-Pent-1-ylnaphthalen-2-yl)acetic acid]", "values": [{"measurement": "inhibition on at least one of the GluN1/GluN2 subtypes", "setting": "[1]; 100 μM", "result": "≥ 50", "unit": "%"}]}
{"smiles": "CCCCOc1ccc2cc(C(=O)O)ccc2c1", "note": "[Compound 24, 6-Butoxy-2-naphthoic acid]", "values": [{"measurement": "inhibition on at least one of the GluN1/GluN2 subtypes", "setting": "[1]; 100 μM", "result": "≥ 50", "unit": "%"}]}
{"smiles": "CC(C)CNC(=O)c1ccc2cc(C(=O)O)ccc2c1", "note": "[Compound 52, 6-(Isobutylcarbamoyl)-2-naphthoic acid]", "values": [{"measurement": "inhibition on at least one of the GluN1/GluN2 subtypes", "setting": "[1]; 100 μM", "result": "≥ 50", "unit": "%"}]}
{"smiles": "CC(C)C(=O)OCc1ccc2cc(C(=O)O)ccc2c1", "note": "[Compound 54, 6-((Isobutyryloxy)methyl)-2-naphthoic acid]", "values": [{"measurement": "inhibition on at least one of the GluN1/GluN2 subtypes", "setting": "[1]; 100 μM", "result": "≥ 50", "unit": "%"}]}
{"smiles": "CC(C)COCc1ccc2cc(C(=O)O)ccc2c1", "note": "[Compound 57, 6-(Isobutoxymethyl)-2-naphthoic acid]", "values": [{"measurement": "inhibition on at least one of the GluN1/GluN2 subtypes", "setting": "[1]; 100 μM", "result": "≥ 50", "unit": "%"}]}
{"smiles": "O=C(O)c1cc2cc(/C=C/c3ccccc3)ccc2cc1O", "note": "[Compound 79a, (E)-3-Hydroxy-7-styryl-2-naphthoic acid]", "values": [{"measurement": "fold greater inhibitory activity on GluN2C and GluN2D compared to 7", "setting": "[1]; GluN2C and GluN2D, from IC50 values, Table 6", "result": "3–5 fold"}, {"measurement": "maximal inhibition across GluN2A-D", "setting": "[1]; range over GluN2A-D", "result": "83–94%"}, {"measurement": "fold greater inhibitory activity on GluN2B compared to 7", "setting": "GluN1/GluN2B NMDAR", "result": "~ 10 fold"}]}
{"smiles": "O=C(O)c1cc2cc(/C=C/c3ccccc3[N+](=O)[O-])ccc2cc1O", "note": "[Compound 79h, (E)-3-Hydroxy-7-(2-nitrostyryl)-2-naphthoic acid]", "values": [{"measurement": "fold lower IC50 on GluN2A and GluN2D compared to 79a", "setting": "[1]; GluN2A and GluN2D", "result": 3, "unit": "fold"}, {"measurement": "maximal inhibition of GluN2B-D", "setting": "[1]; range over GluN2B-D", "result": "60–80%"}, {"measurement": "fold higher IC50 on GluN2B compared to 79a", "setting": "GluN1/GluN2B NMDAR", "result": 4, "unit": "fold"}, {"measurement": "percentage maximum inhibition of the agonist response, GluN2D", "setting": "GluN1/GluN2D NMDAR", "result": "70–80%"}, {"measurement": "percentage maximum inhibition of the agonist response, GluN2A", "setting": "GluN1/GluN2A NMDAR [2]; value in parenthesis, ± s.e.m., L-glutamate 10 μM and glycine 10 μM", "result": 30, "unit": "%"}]}
{"smiles": "O=C(O)c1cc2cc(/C=C/c3cccc([N+](=O)[O-])c3)ccc2cc1O", "note": "[Compound 79i, (E)-3-Hydroxy-7-(3-nitrostyryl)-2-naphthoic acid]", "values": [{"measurement": "fold greater inhibitory activity on GluN2B compared to 7", "setting": "GluN1/GluN2B NMDAR", "result": 10, "unit": "fold"}, {"measurement": "fold higher inhibitory activity on GluN2D compared to 7", "setting": "GluN1/GluN2D NMDAR; from IC50 values, Table 6", "result": 35, "unit": "fold"}, {"measurement": "percentage maximum inhibition of the agonist response, GluN2D", "setting": "GluN1/GluN2D NMDAR", "result": "70–80%"}, {"measurement": "fold higher inhibitory activity on GluN2C compared to 7", "setting": "GluN1/GluN2C NMDAR", "result": 5, "unit": "fold"}]}
{"smiles": "O=C(O)c1cc2cc(Br)ccc2oc1=O", "note": "[UBP608]", "values": [{"measurement": "selectivity for GluN2A over GluN2D", "setting": "GluN1/GluN2A NMDAR [4]", "result": 23, "unit": "fold"}]}
